Data as given in US20150290306A1, “COMPOSITIONS AND METHODS FOR DIAGNOSIS AND TREATMENT OF MALIGNANT GLIOMAS” (priority 2012, published 2015).

Experiments:
PBMCs = experiment: PBMC culture with candidate peptides for 14 days, IFN-γ and IL-5 in supernatant by ELISA; assay type: cell-based, human; conditions: for IFN-γ/IL-5 ratio (geometric mean): peptide 10 μg/mL
Source text: Measurement of antigen-specific T cell responses in the peripheral blood in humans differs depending on whether responses are high affinity interactions with foreign (viral) epitopes or lower affinity interactions involving recognition of self-antigens. […] Given that T cell responses directed against MAGE and IL-13Rα2 antigens also involve T cells with low affinity to these self-antigens, antigen-specific responses were quantified based on cytokine secretion, as recently described in a phase I study of patients with MS (Viglietta V, et al: Neurology 2008, 71(12):917-924). Cytokine production was quantified by ELISA, defining a positive T cell response for each patient as the amounts of IFN-γ or IL-5 that were >50 pg/mL and two standard deviations above the mean cytokine levels secreted after stimulation of cells from that patient with negative control MBP peptide.
Twenty-five mL of blood from patients or healthy subjects was obtained under an IRB-approved protocol. All samples of blood from patients were taken at the time of surgery. […] All tumor-bearing patients received similar doses of steroids and anti-epileptic medications at the time of tumor debulking surgery prior to obtaining peripheral blood for these studies. T cell responses in patients with meningiomas controlled for influences of steroids on antigen responsiveness and cytokine balance. Tumor tissue was independently confirmed in all cases by formal pathological analysis. PBMCs were purified from heparinized blood by density gradient centrifugation using Ficoll-Hypaque (GE Healthcare Biosciences), and cells were then washed with PBS and viable cells quantified by trypan-blue staining.
Freshly isolated PBMCs were plated at 2×10^5 cells/well in 200 μl of serum-free X-VIVO15 (X15) media (Lonza) in 96-well round-bottom cell culture plates. Candidate peptides, in addition to a negative control peptide derived from MBP were added at a concentration of 10 μg/mL and anti-CD3 mAb was added at a concentration of 1 μg/mL. Six T cell cultures were established for each condition in each subject, and 100 IU/ml of IL-2 was added on the following day. Plates were incubated at 37° C. and 5% CO2 for 14 days, with media changed as needed, and the supernatant was harvested to evaluate T cell responses (cytokines) induced by each condition using ELISA. In a limited number (n=3) of patients, cytokine production was assessed after both 7 and 14 days. […] An IFN-γ ELISPOT assay was performed as previously described (Lv H, Havari E, et al: J Clin Invest, 121(4):1561-1573).
To detect T helper cell responses directed against the candidate peptides, IFN-γ and IL-5 were measured by ELISA using commercially available kits supplied by BD bioscience. IFN-γ was used as a prototypic Th1 cytokine and IL-5 was chosen as a prototypic cytokine released by Th2 cells because unlike IL-4 there would be no potential consumption by antigen-specific T cells in the culture conditions (Kourilsky P, Truffa-Bachi P: Trends Immunol 2001, 22(9):502-509).

DRB1*04 and *15 alleles = conditions: literature, Mycko et al. 2004; cited from earlier work

For “ENPVVHFFKNIVTPR [MBP85-99, reference compound]”, the “mean cut-off for a positive cytokine response based on cytokine induced by control MBP peptide, IFN-γ” value (PBMCs; GBM patients) was 123 pg/mL, the “mean cut-off for a positive cytokine response based on cytokine induced by control MBP peptide, IL-5” value (PBMCs; GBM patients) was 312 pg/mL and the “mean cut-off for a positive cytokine response based on cytokine induced by control MBP peptide, IFN-γ” value (PBMCs; healthy subjects) was 895 pg/mL. For the same sequence, the “HLA class II alleles shown to bind (experimental data)” value (DRB1*04 and *15 alleles) was “bind to both the DRB1*04 and *15 alleles”.

For LLRFWLPFGFILILV [IL-13Ra2341-355], the “positive wells among 6 primary T cell responses (IFN-γ or IL-5 ELISA)” value (PBMCs; Healthy Subject 2) was “+ (+/++ cell=1-2 positive wells)”, the “positive wells among 6 primary T cell responses (IFN-γ or IL-5 ELISA)” value (PBMCs; Healthy Subject 4) was “+ (+/++ cell=1-2 positive wells)” and the “positive wells among 6 primary T cell responses (IFN-γ or IL-5 ELISA)” value (PBMCs; Healthy Subject 5) was “++++ (+++/++++ cell=3-4 positive wells)”. The “positive wells among 6 primary T cell responses (IFN-γ or IL-5 ELISA)” value (PBMCs; Healthy Subject 6) was “+ (+/++ cell=1-2 positive wells)”, the “positive wells among 6 primary T cell responses (IFN-γ or IL-5 ELISA)” value (PBMCs; Meningioma 5) was “++ (+/++ cell=1-2 positive wells)” and the “positive wells among 6 primary T cell responses (IFN-γ or IL-5 ELISA)” value (PBMCs; Meningioma 6) was “+ (+/++ cell=1-2 positive wells)”. The “positive wells among 6 primary T cell responses (IFN-γ or IL-5 ELISA)” value (PBMCs; Primary GBM 1) was “+ (+/++ cell=1-2 positive wells)”, the “positive wells among 6 primary T cell responses (IFN-γ or IL-5 ELISA)” value (PBMCs; Primary GBM 2) was “++ (+/++ cell=1-2 positive wells)” and the “positive wells among 6 primary T cell responses (IFN-γ or IL-5 ELISA)” value (PBMCs; Primary GBM 3) was “+++++ (+++++/++++++ cell=5-6 positive wells)”. The “positive wells among 6 primary T cell responses (IFN-γ or IL-5 ELISA)” value (PBMCs; Primary GBM 5) was “++ (+/++ cell=1-2 positive wells)”, the “positive wells among 6 primary T cell responses (IFN-γ or IL-5 ELISA)” value (PBMCs; Primary GBM 6) was “++ (+/++ cell=1-2 positive wells)” and the “positive wells among 6 primary T cell responses (IFN-γ or IL-5 ELISA)” value (PBMCs; Primary GBM 7) was “+++ (+++/++++ cell=3-4 positive wells)”. For the same sequence, the “positive wells among 6 primary T cell responses (IFN-γ or IL-5 ELISA)” value (PBMCs; Primary GBM 8) was “++++ (+++/++++ cell=3-4 positive wells)”, the “positive wells among 6 primary T cell responses (IFN-γ or IL-5 ELISA)” value (PBMCs; Recurrent GBM 1) was “++ (+/++ cell=1-2 positive wells)” and the “IFN-γ/IL-5 ratio (geometric mean)” value (PBMCs; healthy subjects) was 1.6. For the same sequence, the “IFN-γ/IL-5 ratio (geometric mean)” value (PBMCs; patients with primary GBMs) was 0.3 and the “IFN-γ/IL-5 ratio (geometric mean)” value (PBMCs; patients with recurrent GBMs) was 0.02.
